{"source": "paper PMC8696986", "about": "“Synthesis and evaluation of 3′-[^18F]fluorothymidine-5′-squaryl as a bioisostere of 3′-[^18F]fluorothymidine-5′-monophosphate” (RSC Advances, 2021)", "key": {"[1]": {"set-up": "method as in PMID 12217356, PMID 27319940", "conditions": "cited from earlier work"}, "[2]": {"conditions": "cited from earlier work"}, "HCT116^shTMPK− tumours": {"system": "HCT116^shTMPK− tumours", "assay": "Dynamic PET imaging, HCT116^shTMPK− xenografts", "format": "in vivo, female BALB/c athymic nude mice", "conditions": "mutant HCT116^shTMPK− xenograft, 2–10 min post-injection, PET time–activity curve", "procedure": "(§1) Female BALB/c athymic nude mice (6–8 weeks old), injected subcutaneously with either mutant HCT116^shTMPK− or WT HCT116 (Charles River UK Ltd., Margate, UK) at 5 × 10^6 cells per mouse, using dynamic PET imaging (Fig. 5A). Inoculations were performed under 2% isoflurane/O2 anesthesia 7 days after animal arrival. All mice were aged 10–16 weeks with similar weight (20 ± 2 g) and kept under standard conditions in individually ventilated cages (maximum of 6 animals per cage) prior to experiments.\nBALB/c mice (Charles River UK Ltd, Margate, UK) were anesthetized and scanned on a dedicated small animal PET scanner (G4 Genesis, Sofie Biosciences, Culver City, CA, USA) following a bolus injection of 0.75 MBq of [^18F]SqFLT via a lateral tail vein cannula. Imaging was performed under 2% isoflurane/O2 anaesthesia. After tracer injection, emission scans were acquired in list-mode format (over 0–60 min – dynamic scans) to give decay-corrected values of radioactivity accumulation in tissues. The collected data were reconstructed with a 3-dimensional maximum likelihood estimation method 3D ML-EM (Sofie Biosciences). […] Tissue radioactivity uptake values were normalized to injected dose and mouse weight."}, "WT HCT116 cells": {"system": "WT HCT116 cells", "assay": "In vitro cell uptake of radiotracer in WT HCT116 cells", "format": "cell-based, human", "procedure": "(§2) HCT116 (human colon cancer; LGC Standards, Teddington, Middlesex, UK) and subsequent knockdown HCT116^shTMPK− cells were cultured in Roswell Park Memorial Institute Medium 1640 supplemented with 10% foetal bovine serum, 2% Penicillin-Streptomycin (5000 U mL^−1) and 1% L-Glutamine. Cells were maintained in a 5% CO2 humidified incubator at 37 °C and grown in 6-well plates at 300 000 cells per well or 1 500 000 cells (per 15 cm petri dish for HPLC) for the stated cell lines. All cells were grown for 24 h in a volume of 2 mL per well or 10 mL per petri dish unless stated otherwise. All cells were maintained at 60–70% confluence prior to experiments, passaged in our laboratory for fewer than 6 months on receipt and were tested mycoplasma free. Experiments were performed using cells under 10 passages.\n[^18F]SqFLT (0.74 mBq per well) was added to individual wells and cells were incubated at 37 °C in a humidified atmosphere of 5% CO2 for 15, 30, 60, 90 and 120 min. Following incubation, cells were washed three times with 1× PBS and lysed once ice for 15 min using RIPA buffer (1 mL per well). Cell lysates were homogenized and transferred to radioactivity counting tubes. Radioactivity in each sample was counted using an auto-gamma counter (Perkin Elmer, London, UK). Total protein per sample was quantified using the Pierce™ BCA protein assay method. Decay corrected counts were normalized to protein concentration as percentage incubated dose per milligram of cellular protein (%ID per mg protein) in each sample."}, "HCT116^shTMPK− cells": {"system": "HCT116^shTMPK− cells", "assay": "In vitro cell uptake of radiotracer in TMPK knockdown HCT116^shTMPK− cells", "format": "cell-based, human", "conditions": "0.74 MBq, 60 min incubation, n = 6, mean ± SEM", "procedure": "as §2\nGuide RNA (gRNA) sequences for CRISPR/Cas9 were generated from CRISPR design web site (http://crispr.mit.edu/), provided by the Feng Zhang Lab.[33] […]\n[^18F]SqFLT (0.74 mBq per well) was added to individual wells and cells were incubated at 37 °C in a humidified atmosphere of 5% CO2 for 15, 30, 60, 90 and 120 min. […] Cell lysates were homogenized and transferred to radioactivity counting tubes. Radioactivity in each sample was counted using an auto-gamma counter (Perkin Elmer, London, UK). Total protein per sample was quantified using the Pierce™ BCA protein assay method. […]"}, "[3]": {"target": "T1, ABCB1 transporter (HCT116 cells) (Homo sapiens, UniProt P08183)", "T1 construct": "endogenous in cells; host or cells: HCT116 cells", "T1 sequence (P08183 whole entry)": "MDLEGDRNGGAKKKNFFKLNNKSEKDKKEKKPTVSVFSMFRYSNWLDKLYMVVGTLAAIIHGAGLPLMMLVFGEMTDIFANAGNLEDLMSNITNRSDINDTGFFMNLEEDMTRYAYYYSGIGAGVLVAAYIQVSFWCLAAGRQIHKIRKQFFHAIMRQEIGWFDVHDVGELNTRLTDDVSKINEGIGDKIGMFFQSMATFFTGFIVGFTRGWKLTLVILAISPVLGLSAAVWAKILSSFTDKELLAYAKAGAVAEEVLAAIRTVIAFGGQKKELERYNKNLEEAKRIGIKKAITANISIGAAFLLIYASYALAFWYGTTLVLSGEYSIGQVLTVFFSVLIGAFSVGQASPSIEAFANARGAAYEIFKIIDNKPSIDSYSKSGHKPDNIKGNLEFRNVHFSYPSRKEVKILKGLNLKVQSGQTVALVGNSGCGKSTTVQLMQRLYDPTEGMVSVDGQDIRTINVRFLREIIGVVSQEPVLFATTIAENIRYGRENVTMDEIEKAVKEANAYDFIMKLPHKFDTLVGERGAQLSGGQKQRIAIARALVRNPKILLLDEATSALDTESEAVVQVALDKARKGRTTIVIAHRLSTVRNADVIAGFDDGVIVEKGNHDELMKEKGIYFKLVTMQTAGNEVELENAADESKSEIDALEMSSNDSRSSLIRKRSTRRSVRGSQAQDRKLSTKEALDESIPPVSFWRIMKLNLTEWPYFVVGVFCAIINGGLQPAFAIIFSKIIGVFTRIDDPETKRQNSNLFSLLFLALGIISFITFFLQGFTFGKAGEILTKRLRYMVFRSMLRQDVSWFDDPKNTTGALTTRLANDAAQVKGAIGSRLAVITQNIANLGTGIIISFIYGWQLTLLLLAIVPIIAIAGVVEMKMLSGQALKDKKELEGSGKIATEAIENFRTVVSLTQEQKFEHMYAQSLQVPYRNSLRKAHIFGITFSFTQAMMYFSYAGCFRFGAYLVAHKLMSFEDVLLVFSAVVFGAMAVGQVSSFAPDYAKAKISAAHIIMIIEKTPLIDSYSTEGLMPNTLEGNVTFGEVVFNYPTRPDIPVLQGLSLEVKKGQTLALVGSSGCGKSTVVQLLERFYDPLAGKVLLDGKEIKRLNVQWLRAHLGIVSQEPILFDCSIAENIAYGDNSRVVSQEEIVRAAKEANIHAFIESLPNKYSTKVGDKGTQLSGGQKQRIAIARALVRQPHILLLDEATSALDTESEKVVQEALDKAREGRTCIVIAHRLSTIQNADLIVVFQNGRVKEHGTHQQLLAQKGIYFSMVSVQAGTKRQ", "assay": "Efflux assay with verapamil", "format": "cell-based", "conditions": "verapamil 3 μM, 1 h pre-incubation then 1 h co-incubation", "procedure": "HCT116 cells were plated and maintained at 60–70% confluence in complete media conditions as previously described. Following 24 h, cell media was aspirated and treated with media containing 3 μM verapamil for 1 h prior to co-incubation with 0.74 mBq of [^18F]SqFLT. Cells were subsequently incubated for a further 1 h before being lysed and gamma counted as previously described.\n9.0 Determining if [18F]SqFLT is a substrate for multidrug resistance proteins\n0.00 Control 1 h Verapamil\nFigure 34. Uptake of [18F]SqFLT in HCT116 cells following treatment with Verapamil. HCT 116 cells were pre-incubated with Verapamil (3 µM) for 60 min followed by co-incubated with [18F]SqFLT (0.74 MBq). One-way Anova statistical analysis and Dunnets post hoc was performed for n = 5 samples.\n10.0 Time activity curves (TAC)\nFigure 35. Time-activity curves derived from region-of-interest analysis of PET imaging data (including detail of uptake kinetics between 0-5 min of [18F]SqFLT injection) in bladder, kidneys and gallbladder. Data represent mean ± SEM (n>5) and is expressed as % of injected […]\n1 M. Yun, S. J. Oh, H. J. Ha, J. S. Ryu and D. H. Moon, Nucl. Med. Biol., 2003, 30, 151–\n2 C. N. Tetzlaff, I. Schwope, C. F. Bleczinski, J. A. Steinberg and C. Richert, Tetrahedron\n(also on this page, place not known: [18F]-SqFLT (% ID/mg protein) uptake of 4215–4218.)\n(1 picture or pasted object on this page, not shown here)"}, "[4]": {"system": "TK1 and ENT1/2 ([^18F]FLT uptake in HCT116 cells)", "assay": "In vitro competition assay between [^18F]FLT and thymidine/[^19F]SqFLT", "format": "cell-based, human", "procedure": "HCT116 were plated and maintained at 60–70% confluence in complete media conditions as previously described. […] Treated cells were incubated at 37 °C for 20 min before [^18F]FLT was added to each well to yield a final concentration of 0.74 mBq per well. Cells were subsequently incubated in a humidified atmosphere of 5% CO2 for 1 h before being lysed and gamma counted as previously described.\n(§3) 6.0 Metabolite analysis in microsomes\nFigure 31. Representative HPLC chromatograms showing A) parent [18F]SqFLT, and incubation of [18F]SqFLT with HLM for B) 30 mins and C) 60 mins.\nThe experiment was performed in triplicate (n = 3)\n7.0 Gene structure and positions of CRISPR and PCR primers.\nFigure 32. Diagram (not to scale) indicates overall gene structure and positions of the CRISPRS […]\n8.0 Determining if [18F]SqFLT is a substrate for TK1 and ENT1/2 […]\nand B) [19F]SqFLT to determine the effect on [18F]FLT uptake. HCT116 cells (at 60 – 70 % […]\nfor 20 min prior to co-incubation with [18F]FLT (0.74 MBq). Radioactive uptake normalised […]"}, "[5]": {"assay": "In vitro metabolite analysis in human liver microsomes", "format": "in vitro ADME", "conditions": "HLM, 37 °C, over 60 min", "procedure": "A published method for performing in vitro metabolite analysis using liver microsomes was adapted.[35] [^18F]SqFLT (40 μL, 3.5 MBq) was added to human liver microsomes (50 μL, 1 mg mL^−1), NADPH regeneration system A (50 μL), NADPH regeneration system B (10 μL) and PBS (400 μL, 0.1 M) in a 1.5 mL microcentrifuge tube. The mixture was gently vortexed and incubated in aerobic conditions at 37 °C with gentle shaking for either 30 min or 60 min using a thermomixer. The mixture was transferred into a 15 mL plastic centrifuge tube and proteins were precipitated with ice-cold MeCN + 0.1% TFA (2 mL) and vortexed. Proteins were pelleted by centrifugation (12 000g, 3 min), and the supernatant removed and filtered (0.2 μm). The supernatant was diluted (1 : 9) with H2O + 0.1% TFA and injected onto a HPLC instrument bearing a 1 mL injection loop and PosiRam (LabLogic, Sheffield, UK) metabolite detector. Samples of a known volume were taken from the supernatant and the entire protein pellet were counted using an auto-gamma counter (Perkin Elmer, London, UK) to determine the extraction efficiency. All experiments were performed in triplicate (n = 3).\nas §3\nFigure 31. Representative HPLC chromatograms showing A) parent [18F]SqFLT, and incubation of [18F]SqFLT with HLM for B) 30 mins and C) 60 mins. The extraction efficiency was 96.1 ± 0.4 %. […]"}, "WT HCT116 tumours": {"system": "WT HCT116 tumours", "assay": "Dynamic PET imaging, WT HCT116 xenografts", "format": "in vivo, female BALB/c athymic nude mice", "procedure": "as §1\nBALB/c mice (Charles River UK Ltd, Margate, UK) were anesthetized and scanned on a dedicated small animal PET scanner (G4 Genesis, Sofie Biosciences, Culver City, CA, USA) following a bolus injection of 0.75 MBq of [^18F]SqFLT via a lateral tail vein cannula. Imaging was performed under 2% isoflurane/O2 anaesthesia. After tracer injection, emission scans were acquired in list-mode format (over 0–60 min – dynamic scans) to give decay-corrected values of radioactivity accumulation in tissues. The collected data were reconstructed with a 3-dimensional maximum likelihood estimation method 3D ML-EM (Sofie Biosciences). Cumulative images of the data were used for visualization of radiotracer uptake and to define tissue volumes of interest (VOIs) using Siemens Inveon Research Workplace software (Siemens Molecular Imaging, Inc. Knoxville, USA). Tissue radioactivity uptake values were normalized to injected dose and mouse weight."}, "[6]": {"assay": "Log D7.5 determination (shake flask method)", "format": "physicochemical", "conditions": "octanol/PBS pH 7.5, mean ± SD, n = 3", "procedure": "The hydrophilicity of [^18F]SqFLT (>90% RCP) was determined experimentally by its Log D7.5 using the shake flask method. […] Being a highly hydrophilic molecule, we were sceptical that [^18F]SqFLT would be cell permeable and aimed to determine this experimentally in radioactive cell uptake experiments.\nTo a 1.5 mL microcentrifuge tube was added PBS pH 7.5 (500 μL) and octanol (500 μL). The tube was shaken for 15 min, followed by centrifugation (13 000g, 5 min). [^18F]SqFLT (3 MBq) in PBS (<5% EtOH) was added and the samples shaken for 30 min, followed by centrifugation (13 000g, 5 min). Aliquots from the octanol layer and PBS layer were removed (100 μL) and placed in counting tubes. Radioactivity was measured using a γ-counter and the partition coefficient was calculated using Log D7.5 = log10[Oct/PBS]. The Log D7.5 value was reported as mean ± SD (n = 3, triplicate analysis)."}}, "note": "Like-named read-outs stand apart in the source and are kept apart here.", "data": [{"compound": "3′-[^18F]fluorothymidine-5′-monophosphate [[^18F]FLTMP]", "values": [{"measurement": "monophosphate pKa", "setting": "[1]; first value", "result": 1.6}, {"measurement": "monophosphate pKa", "setting": "[1]; second value", "result": 6.6}]}, {"compound": "O=c1c(O)c(NCc2ccccc2)c1=O", "note": "[3-(benzylamino)-4-hydroxycyclobut-3-ene-1,2-dione]", "values": [{"measurement": "permeability", "setting": "[2]; PAMPA", "result": "significantly higher permeability compared to a phosphate analogue"}, {"measurement": "Log D7.4", "setting": "[2]; pH 7.4", "result": "−1.4"}]}, {"compound": "Cc1cn([C@H]2C[C@H]([18F])[C@@H](CNc3c(O)c(=O)c3=O)O2)c(=O)[nH]c1=O", "note": "[[^18F]SqFLT, 3′-[^18F]fluorothymidine-5′-squaryl]", "values": [{"measurement": "peak radiotracer uptake in tumour", "setting": "HCT116^shTMPK− tumours", "result": "1.58 ± 0.12", "unit": "% ID g^−1"}, {"measurement": "tracer uptake in vitro", "setting": "WT HCT116 cells; HCT116 and HCT116^shTMPK− cells, as summed up in the abstract", "result": "< 0.3", "unit": "% ID mg^−1"}, {"measurement": "uptake of [^18F]SqFLT", "setting": "WT HCT116 cells; WT HCT116, 0.74 MBq, 60 min incubation, n = 6, mean ± SEM", "result": "0.24 ± 0.04", "unit": "% ID mg^−1"}, {"measurement": "drop of uptake", "setting": "WT HCT116 cells; WT HCT116, between 15–120 min", "result": 2, "unit": "fold"}, {"measurement": "time of peak uptake", "setting": "WT HCT116 cells; WT HCT116, uptake kinetic profile over 120 min", "result": "0 to 15", "unit": "min"}, {"measurement": "uptake of [^18F]SqFLT", "setting": "HCT116^shTMPK− cells", "result": "0.14 ± 0.04", "unit": "% ID g^−1"}, {"measurement": "effect of verapamil on radiotracer uptake", "setting": "[3]", "result": "did not change radiotracer uptake"}, {"measurement": "dependence of uptake on TK1 and nucleoside transporters (ENT1/2)", "setting": "[4]; inferred from competition of [^19F]SqFLT (1–10 μg mL^−1) with [^18F]FLT", "result": "independent of TK1 and nucleoside transporters (ENT1/2)"}, {"measurement": "metabolism in human liver microsomes", "setting": "[5]", "result": "no metabolism over 60 min"}, {"measurement": "peak radiotracer uptake in tumour", "setting": "WT HCT116 tumours; WT HCT116 xenograft, 2–10 min post-injection, PET time–activity curve", "result": "2.69 ± 0.12", "unit": "% ID g^−1"}, {"measurement": "route of elimination", "setting": "WT HCT116 tumours; mice, PET time-activity curves", "result": "eliminated through the kidney, liver, and bladder"}, {"measurement": "time of peak radiotracer uptake in tumour", "setting": "WT HCT116 tumours; post-injection, WT and mutant xenografts, 60 min dynamic PET scan", "result": "2 to 10", "unit": "min"}, {"measurement": "logD", "setting": "[6]", "result": "-2.9 ± 0.24"}]}, {"compound": "Cc1cn([C@H]2C[C@H](F)[C@@H](CNc3c(O)c(=O)c3=O)O2)c(=O)[nH]c1=O", "note": "[[^19F]SqFLT, 5′-amino-5′-N-(2-hydroxy-3,4-dioxocyclobuten-1-yl)-5′,3′-deoxy-3′-fluoro-thymidine]", "values": [{"measurement": "effect on [^18F]FLT uptake", "setting": "[4]; 10^−3–10^1 μg mL^−1, 20 min before [^18F]FLT, then 1 h", "result": "did not inhibit [^18F]FLT uptake"}]}]}
